Reference: patent US9724352B2, “Pyrrolo[2,1-F[1,2,4]triazine compounds, preparation methods and applications thereof” (Shanghai Institute of Materia Medica, Chinese Academy of …, priority 2012, dated 2017)

Columns and labels:
[1] = system: human rhabdomyosarcoma Rh30 cells; assay: Proliferation of Rh30 cells (sulforhodamine B); type: cell-based; conditions: for IC50: Homo sapiens, Rh30, 72 h, read-out: IC50 against proliferation of Rh30 cells; for inhibitory activity on Rh30 cell proliferation (in words): 72 h
Method: Rh30 cells were seeded in a 96-well plate at 3000 cells/well. After the cells adhered, tested compounds at concentration of 10, 3, 1, 0.3, or 0.1 μM were added, and incubated for 72 h. The culture media were discarded and cells were fixed with trichloroacetic acid. After washed with distilled water for five times and dried, sulfonylrhodamine B was added. After washed with 1% glacial acetic acid for five times and dried, trihydroxymethylaminomethane buffer was added. OD value was measured by using a microplate reader at a wavelength of 560 nm.

[2] = system: human neuroglioma U87-MG xenograft; assay: Growth of U87-MG xenograft subcutaneously transplanted in nude mouse; type: in vivo; conditions: for growth of subcutaneously transplanted U87MG xenograft (in words): p.o. once a day for three weeks
Method: Well-developed tumors in nude mice were cut into 1.5 mm3 fragments and transplanted s.c. into the right flank of nude mice under sterile conditions. The diameters of subcutaneously transplanted tumours in nude mice were measured with a vernier calipe. […] Control groups were given the same amount of blank solvent, and treatment groups received tested compounds (p.o.). Compounds were administrated once a day for three weeks. Throughout the experiment, the sizes of the tumours were measured twice per week and meanwile the body weights of mice were weighed. The tumour volume (TV) was calculated as follows: TV=½×a×b2, wherein a and b represent the length and width, respectively. The individual relative tumour volume (RTV) was calculated as follows: RTV=Vt/V0, where V0 is the volume at the beginning of the treatment and Vt is the volume measured every time. Evaluation index of antitumor activity was relative tumor proliferation rate T/C (%), the calculation formula of which was as follows: T/C (%)=(TRTV/CRTV)×100%, TRTV:RTV of treatment group; CRTV:RTV of negative control group.

Question: With `CN(C)Cc1cc2c(N3CCOCC3)nc(-c3ccc(NC(=O)Nc4ccc(F)cc4)cc3)nn2c1` [Compound I-4, 1-[4-(6-dimethylaminomethyl-4-morpholinopyrrolo[2,1-f][1,2,4]triazin-2-yl)phenyl]-3-(p-fluorophenyl)urea] as the compound, how does the IC50 [1] read?
Answer: 400 nM

Question: Which IC50 [1] does the source give for `CN(C)Cc1cc2c(N3CCOCC3)nc(-c3ccc(NC(=O)Nc4ccc(Cl)cc4)cc3)nn2c1` [Compound I-5, 1-[4-(6-dimethylaminomethyl-4-morpholinopyrrolo[2,1-f][1,2,4]triazin-2-yl)phenyl]-3-(p-chlorophenyl)urea] here?
Answer: 1240 nM

Question: `CN(C)Cc1cc2c(N3CCOCC3)nc(-c3ccc(NC(=O)Nc4cccc(Cl)c4)cc3)nn2c1` [Compound I-6, 1-(3-chlorophenyl)-3-(4-(6-((dimethylamino)methyl)-4-morpholinopyrrolo[2,1-f][1,2,4]triazin-2-yl)phenyl)urea] was tested. Which IC50 [1] did it give?
Answer: 1360 nM

Question: `Cc1ccc(NC(=O)Nc2ccc(-c3nc(N4CCOCC4)c4cc(CN(C)C)cn4n3)cc2)cc1` [Compound I-9, 1-(4-(6-((dimethylamino)methyl)-4-morpholinopyrrolo[2,1-f][1,2,4]triazin-2-yl)phenyl)-3-(p-tolyl)urea] was tested. Which IC50 [1] did it give?
Answer: 990 nM

Question: `CN(C)Cc1cc2c(N3CCOCC3)nc(-c3ccc(NC(=O)Nc4ccc(C(=O)N(C)C)cc4)cc3)nn2c1` [Compound I-14, 4-(3-(4-(6-((dimethylamino)methyl)-4-morpholinopyrrolo[2,1-f][1,2,4]triazin-2-yl)phenyl)ureido)-N,N-dimethylbenzamide] was tested. Which IC50 [1] did it give?
Answer: 500 nM

Question: For `CN(C)Cc1cc2c(N3CCOCC3)nc(-c3cccc(CO)c3)nn2c1` [Compound I-24, (3-(6-((dimethylamino)methyl)-4-morpholinopyrrolo[2,1-f][1,2,4]triazin-2-yl)phenyl)methanol], which “inhibitory activity on Rh30 cell proliferation (in words)” value [1] is on record?
Answer: tens of nanomolar

Question: What about the IC50 [1] of the same compound?
Answer: 74 nM

Question: Which “inhibitory activity on Rh30 cell proliferation (in words)” value [1] does the source give for `CN(C)Cc1cc2c(N3CCOCC3)nc(-c3cccc(CS(C)(=O)=O)c3)nn2c1` [Compound I-25, N,N-dimethyl-1-(2-(3-((methylsulfonyl)methyl)phenyl)-4-morpholinopyrrolo[2,1-f][1,2,4]triazin-6-yl)methanamine] here?
Answer: tens of nanomolar

Question: And the IC50 [1]?
Answer: 39 nM

Question: Which IC50 [1] does the source give for `CN(C)Cc1cc2c(N3CCOCC3)nc(-c3cccc(CNS(C)(=O)=O)c3)nn2c1` [Compound I-26, N-(3-(6-((dimethylamino)methyl)-4-morpholinopyrrolo[2,1-f][1,2,4]triazin-2-yl)benzyl)methanesulfonamide] here?
Answer: 240 nM

Question: `CS(=O)(=O)N1CCN(Cc2cc3c(N4CC5CCC(C4)O5)nc(-c4cnc(N)cc4C(F)(F)F)nn3c2)CC1` [Compound I-29, 5-(4-(8-oxa-3-azabicyclo[3.2.1]octan-3-yl)-6-((4-(methylsulfonyl)piperazin-1-yl)methyl)pyrrolo[2,1-f][1,2,4]triazin-2-yl)-4-(trifluoromethyl)pyridin-2-amine] was tested. Which IC50 [1] did it give?
Answer: 3420 nM

Question: How did the IC50 [1] turn out when `CS(=O)(=O)N1CCN(Cc2cc3c(N4CCOCC4)nc(-c4cnc(NC(=O)Oc5ccccc5)cc4C(F)(F)F)nn3c2)CC1` [Compound I-31, Phenyl (5-(6-((4-(methylsulfonyl)piperazin-1-yl)methyl)-4-morpholinopyrrolo[2,1-f][1,2,4]triazin-2-yl)-4-(trifluoromethyl)pyridin-2-yl)carbamate] was run?
Answer: 5060 nM

Question: `C[C@H]1COCCN1c1nc(-c2cnc(N)cc2C(F)(F)F)nn2cc(CN3CCN(S(C)(=O)=O)CC3)cc12` [Compound I-34, (S)-5-(4-(3-methylmorpholino)-6-((4-(methylsulfonyl)piperazin-1-yl)methyl)pyrrolo[2,1-f][1,2,4]triazin-2-yl)-4-(trifluoromethyl)pyridin-2-amine] was tested. Which IC50 [1] did it give?
Answer: 530 nM

Question: Which “Relative tumor proliferation rate T/C” value ([2]; 50 mg/kg p.o. once a day, d0) does the source give for `CCNC(=O)Nc1cc(C(F)(F)F)c(-c2nc(N3CCOCC3)c3cc(CN4CCN(S(C)(=O)=O)CC4)cn3n2)cn1.CS(=O)(=O)O` [I-30 (mesylate), 1-Ethyl-3-(5-(6-((4-(methylsulfonyl)piperazin-1-yl)methyl)-4-morpholinopyrrolo[2,1-f] [1,2,4]triazin-2-yl)-4-(trifluoromethyl)pyridin-2-yl)urea mesylate] here?
Answer: 100.00%

Question: And the “Relative tumor proliferation rate T/C” value ([2]; 50 mg/kg p.o. once a day, d3)?
Answer: 67.89%

Question: What about the “Relative tumor proliferation rate T/C” value ([2]; 50 mg/kg p.o. once a day, d7) of the same compound?
Answer: 54.35%

Question: What about the “Relative tumor proliferation rate T/C” value ([2]; 50 mg/kg p.o. once a day, d10) of the same compound?
Answer: 60.45%

Question: And the “Relative tumor proliferation rate T/C” value ([2]; 50 mg/kg p.o. once a day, d14)?
Answer: 42.46%

Question: And the “Relative tumor proliferation rate T/C” value ([2]; 50 mg/kg p.o. once a day, d17)?
Answer: 41.64%

Question: What about the “Relative tumor proliferation rate T/C” value ([2]; 50 mg/kg p.o. once a day, d21) of the same compound?
Answer: 37.26%

Question: What about the “growth of subcutaneously transplanted U87MG xenograft (in words)” value [2] of the same compound?
Answer: significant inhibitory effects

Question: How did the “Relative tumor proliferation rate T/C” value ([2]; 20 mg/kg p.o. once a day, d0) turn out when `COC(=O)Nc1cc(C(F)(F)F)c(-c2nc(N3CCOCC3)c3cc(CN4CCN(S(C)(=O)=O)CC4)cn3n2)cn1.CS(=O)(=O)O` [I-33 (mesylate), Methyl (5-(6-((4-(methylsulfonyl)piperazin-1-yl)methyl)-4-morpholinopyrrolo[2,1-f][1,2,4]triazin-2-yl)-4-(trifluoromethyl)pyridin-2-yl)carbamate mesylate] was run?
Answer: 100.00%

Question: And the “Relative tumor proliferation rate T/C” value ([2]; 20 mg/kg p.o. once a day, d3)?
Answer: 84.69%

Question: What about the “Relative tumor proliferation rate T/C” value ([2]; 20 mg/kg p.o. once a day, d7) of the same compound?
Answer: 65.90%

Question: And the “Relative tumor proliferation rate T/C” value ([2]; 20 mg/kg p.o. once a day, d10)?
Answer: 55.24%

Question: And the “Relative tumor proliferation rate T/C” value ([2]; 20 mg/kg p.o. once a day, d14)?
Answer: 37.48%

Question: And the “Relative tumor proliferation rate T/C” value ([2]; 20 mg/kg p.o. once a day, d17)?
Answer: 31.92%

Question: What about the “Relative tumor proliferation rate T/C” value ([2]; 20 mg/kg p.o. once a day, d21) of the same compound?
Answer: 32.61%

Question: What about the “Relative tumor proliferation rate T/C” value ([2]; 50 mg/kg p.o. once a day, d0) of the same compound?
Answer: 100.00%

Question: What about the “Relative tumor proliferation rate T/C” value ([2]; 50 mg/kg p.o. once a day, d3) of the same compound?
Answer: 82.76%

Question: And the “Relative tumor proliferation rate T/C” value ([2]; 50 mg/kg p.o. once a day, d7)?
Answer: 59.61%

Question: And the “Relative tumor proliferation rate T/C” value ([2]; 50 mg/kg p.o. once a day, d10)?
Answer: 54.74%

Question: And the “Relative tumor proliferation rate T/C” value ([2]; 50 mg/kg p.o. once a day, d14)?
Answer: 36.93%

Question: And the “Relative tumor proliferation rate T/C” value ([2]; 50 mg/kg p.o. once a day, d17)?
Answer: 29.89%

Question: What about the “Relative tumor proliferation rate T/C” value ([2]; 50 mg/kg p.o. once a day, d21) of the same compound?
Answer: 25.65%

Question: And the “growth of subcutaneously transplanted U87MG xenograft (in words)” value [2]?
Answer: significantly inhibited the growth
